In patent US20090075925A1, “Methods and Compositions Related to APOBEC-1 Expression” (priority 2006, published 2009):
“And” between values parts separate entries of the source, which are not always exact repeats. Equal entries are not always repeated. Where two headings read alike, the source gives them in different places. Each block holds one compound with its values, some of them ahead of it.

Assays:
[1] = test system: PP2A; settings: cited from earlier work
[2] = test system: ACF
[3] = test system: apoB mRNA editing; settings: for apoB mRNA editing, Mean ± SEM: 6 hours; for apoB mRNA editing (increased from 66%): about 10 times the IC50 for PP1 (cantharidin 4.7 μM)
Protocol: Protein phosphatase inhibitor studies. […] The compounds' effects on apoB mRNA editing were evaluated by RT-PCR and poisoned-primer extension analysis (Sowden et al. Rna 2:274-88 (1996)). The effect of 470 nM cantharidin on ACF subcellular distribution was investigated by treating primary hepatocyte cultures for 6 hours followed by nuclear and cytoplasmic extract preparation.
It was reasoned that if phosphorylation of ACF regulated editing activity, treatment of rat primary hepatocytes with phosphatase inhibitors might stimulate apoB mRNA editing activity. […] The experiments (n=4-6) were done over a number of months and therefore represent primary hepatocytes from several rats.
Editing activity was quantified from primary hepatocytes incubated with 10-100-times the EC50 of the various […] (Calbiochem).

[4] = test system: apoB protein; experiment: intracellular and secreted apoB protein in primary hepatocytes (radioimmunoassay); assay type: cell-based, rat
Protocol: The effect of Cantharidin on the abundance of intracellular and secreted apoB protein was also evaluated. Primary hepatocyte cultures were treated with Cantharidin at the IC50 of PP1 and 10-times higher (n=5 for each condition). Intracellular apoB protein in hepatocyte cytoplasmic extracts and apoB protein secreted into the media as VLDL was quantified as ng apoB protein per mg total protein in the Sparks' lab by radioimmunoassay using a monoclonal antibody against apoB as described previously (Chirieac et al. (2000), Au et al. (2004), Sparks, J D and Sparks, C E J Biol Chem 265:8854-62 (1990)) (FIG. 13). For these experiments, insulin was withdrawn from control and Cantharidin-treated cultures 24 hours prior to the addition of Cantharidin in order to isolate the effect of PP 1 inhibition in the absence of insulin stimulated kinase activity.
If alterations in ACF phosphorylation are consequently to ApoB metabolism, then intracellular ApoB protein abundance should be responsive to inhibition of PP1. This was evaluated in treated primary hepatocytes by quantifying ApoB protein in hepatocyte cytoplasmic extracts and secreted into the media as VLDL using ApoB radioimmunoassay and expressed as ng ApoB protein per mg total protein (FIG. 13). For these experiments insulin was withdrawn from control and cantharidin-treated cultures 24 hours prior to the addition of cantharidin in order to isolate the effect of PP I inhibition in the absence of insulin stimulated kinase activity. […] This is the same dose response that was reported for maximal phospho-ACF recovery Mehta, A. et al (2002)).

[5] = test system: PP1; settings: cited from earlier work
[6] = test system: ACF; experiment: ACF phosphorylation in 32P-labeled rat primary hepatocytes (ACF immunoprecipitation, autoradiography); assay type: cell-based
Protocol: In vivo phosphorylation of ACF. In vivo ^32P labeling was performed by intraperitoneal injection of rats with 12.5 mCi of orthophosphoric acid (10 mCi/ml ^32PO4; NEN, Boston, Mass.) buffered with 50 mM HEPES, pH 7.0 and 150 mM NaCl. After 4 hours, rats were sacrificed and hepatic cytoplasmic and nuclear extracts prepared. Primary hepatocyte cultures in 60 mm dishes were incubated in phosphate-free Minimum Essential Eagle Media (Sigma) containing 0.1 nM porcine insulin for 6 hours and subsequently in fresh media containing 10 nM insulin (equivalent to that seen in post-prandial serum) or 0.45% to 0.9% ethanol (AAPER Alcohol and Chemical Co., Shelbyville, Ky.) (Van Mater et al. (1998), Yang et al. (2000)) plus 2.0 mCi orthophosphoric acid. Cultures were labeled for 4 hours prior to extract preparation.
To evaluate the effect of phosphatase inhibition on ACF phosphorylation, cultures were pre-incubated for 2 hours with 470 nM cantharadin in phosphate-free Waymouth's media and subsequently supplemented with 0.5 mCi ^32pO4 and incubated for an additional 4 hours. Cultures were harvested and subcellular extracts prepared.
Immunological techniques. […] For immunoprecipitation analyses all radiolabeled extracts were adjusted to 5 mM MgCl2 and digested with 100 units of DNase I (Promega), RNase T1 (Roche, Ind.), and RNase A (Sigma) for 1 hour on ice to remove radiolabeled nucleic acid. Where applicable, extracts were incubated overnight with ACF CT antibody at 4° C. and subsequently reacted with Protein A-agarose (Oncogene Research Products, Boston, Mass.) pre-washed with 1×TBS/10 mM NaF. The immuno-absorbed material was washed 3 times with 1×TBS/10 mM NaF, 3 times with 1×TBS/1 M NaCl (Yang et al. (1997)) and lastly 3 times with 1×TBS. Immuno-absorbed material to be treated with alkaline phosphatase was washed with 50 mM Tris, pH 8.4, 1 mM MgCl2, 0.1 mM ZnCl2, 25% glycerol and then incubated with 5 U CIAP for 1 hour at 30° C. and then washed 6 times with 1×TBS. ACF-antibody complexes were eluted with 3 M sodium thiocyanate, acetone precipitated and analyzed by 10.5% SDS-PAGE followed by autoradiography and/or western blotting with ACF NT antibody. For ACF immunoprecipitation from gradient fractions an equal volume of pooled gradient fractions from sedimentation zones of interest were reacted with sub-saturating amounts of ACF CT antibody to ensure that the recovery of phospho-ACF was not simply a reflection of ACF abundance in each zone.
To evaluate this, cytoplasmic and nuclear extracts from radiolabeled primary hepatocyte cultures were sedimented through 10%-50% glycerol gradients. […] The ACF immunoprecipitates were resolved by SDS-PAGE, transferred to nitrocellulose, autoradiographed and subjected to phosphorimager scanning to detect and quantify radiolabeled proteins prior to immunoblotting with the ACF NT antibody.

[7] = test system: AC; settings: cited from earlier work
[8] = test system: apoB mRNA editing; experiment: apoB mRNA editing in McArdle cells (ethanol, ACF wild type, mutants and isoforms); assay type: cell-based, rat; settings: wild type McArdle cells, ethanol 4 hours
Protocol: McArdle RH7777 cells (ATCC Manassas, Va.) stably expressing HA epitope-tagged APOBEC-1 (Yang et al. J Biol Chem 272:27700-6 (1997)) were treated for 4 hours with 0.9% ethanol and fractionated into nuclear extracts (Van Mater et al. (1998)).
To calibrate the system cells were incubated in the presence of ethanol for 4 hours and the amount of edited apoB mRNA determined.
The overall expression and subcellular localization of epitope tagged ACF isoforms is established by western blotting of nuclear and cytoplasmic extracts (prepared using NE-PER system; Pierce). These biochemical studies are complemented by immunofluorescence microscopy of paraformaldehyde fixed cells reacted with epitope tag or ACF isoform-specific antibodies. In pilot experiments varying levels of HA-tagged ACF43 and ACF45 were expressed by transfecting differing amounts of cDNA into McArdle or McAPOBEC cells (FIGS. 35A & C, western blots). […] ACF expression levels, subcellular localization and editing activity are determined from replicate experiments and the relative affects of overexpressing each isoform compared in the absence (negative control) or presence of ethanol and to the response seen in wild type cells (positive control).

[9] = test system: ACF; experiment: hepatic ACF nuclear retention in lean and ob/ob mice after insulin challenge; assay type: in vivo, mouse; settings: 4 h following 1.5 IU insulin/kg BW
Protocol: The mice are insulin-resistant as evident in elevated blood glucose (180-220 mg/dl after fasting) and lack a significant response to challenge when injected with 1.5 IU of insulin/kg BW. It has been shown that apobec-1 gene expression and apoB mRNA editing is markedly stimulated by insulin (Sowden, M. P. et al. (2002); Funahashi, T. F. et al (1995); Phung, T. L. et al. Metabolism 45, 1056-1058 (1996); von Wronski, M. A. et al. Metabolism 47, 869-73 (1998)). As a further indicator of the insulin-resistant state of these animals, it is apparent that hepatic apoB mRNA editing is not stimulated compared to cogenic lean mice (FIG. 40). The results from three fed animals as lean, ob/ob and 4 h Insulin-treated ob/ob mice are shown. Editing was evaluated using the established poisoned-primer extension assay for quantifying edited apoB mRNA where % editing is calculated from PhosphorImager scans as the counts in the edited band, divided by the sum of the counts in the edited plus unedited bands X 100. The nuclear-cytoplasmic distribution of ACF was next assessed in lean and ob/ob mouse liver without or with insulin challenge (4 h following 1.5 IU insulin/kg BW). […] The fold-nuclear retention of total cellular ACF was calculated from these values and is provided at the bottom of the image.

[10] = 0.5 μM (IC50 of PP1), insulin withdrawn 24 hours before
[11] = activation of cAMP dependent kinases

Compound: C[C@@]12C(=O)OC(=O)[C@]1(C)[C@H]1CC[C@@H]2O1 [Cantharidin]
IC50 [1]: 40 nM
IC50 ([1]; listed as cantharidin): 47 nM
nuclear ACF (control nuclear to cytoplasmic 1:1) ([2]; 470 nM, 4 hours): five-fold increase in nuclear ACF
nuclear ACF compared to untreated control hepatocytes ([2]; 0.5 μM (IC50 of PP1)): marked increase in nuclear ACF
apoB mRNA editing, Mean ± SEM ([3]; 4.7 nM): 62 ± 2%
apoB mRNA editing, Mean ± SEM ([3]; 47 nM): 64 ± 1%
apoB mRNA editing, Mean ± SEM ([3]; 470 nM): 75 ± 1%
effect on apoB mRNA editing ([3]; 470 nM, the IC50 for PP1): reproducible, but not statistically significant increase in editing
apoB mRNA editing, Mean ± SEM ([3]; 4.7 μM): 91 ± 1%
apoB mRNA editing (increased from 66%) [3]: > 90%
effect on apoB mRNA editing ([3]; concentration not given): stimulated apoB mRNA editing
reduction in intracellular (cell) apoB relative to untreated hepatocytes [4, 10]: 22%
reduction in secreted (media) apoB relative to untreated hepatocytes [4, 10]: 17%
reduction in secreted apoB ([4]; 5 μM): ≥ 30%
reduction in intracellular apoB ([4]; 5 μM (10-times the IC50)): ≥ 60%
IC50 [5]: 473 nM
IC50 ([5]; listed as cantharidin): 470 nM
ACF phosphorylation ([6]; 470 nM): increased

Compound: CC1(C)C(C=C(Cl)Cl)C1C(=O)OC(C#N)c1cccc(Oc2ccccc2)c1 (stereo not drawn) [Cypermethrin]
apoB mRNA editing, Mean ± SEM ([3]; 50 pM): 69 ± 4%
apoB mRNA editing, Mean ± SEM ([3]; 5 nM): 66 ± 4%
effect on apoB mRNA editing ([3]; concentration not given): did not affect significantly apoB mRNA editing

Compound: O=C(O)[C@@H]1[C@H](C(=O)O)[C@H]2CC[C@@H]1O2 [Endothall]
apoB mRNA editing, Mean ± SEM ([3]; 100 nM): 66 ± 2%
apoB mRNA editing, Mean ± SEM ([3]; 500 nM): 65 ± 2%
apoB mRNA editing, Mean ± SEM ([3]; 5 μM): 64 ± 3%
apoB mRNA editing, Mean ± SEM ([3]; 50 μM): 83 ± 2%
effect on apoB mRNA editing ([3]; 10-times the IC50 for PP1): stimulated editing to statistically significant levels

Compound: C=C[C@@]1(C)CC(=O)[C@]2(O)[C@@]3(C)[C@@H](O)CCC(C)(C)[C@@H]3[C@H](O)[C@H](OC(C)=O)[C@@]2(C)O1 [Forskolin]
apoB mRNA editing, Mean ([3]; 4 μM): 70.6%
apoB mRNA editing, Mean ([3]; 40 μM): 68.5%
apoB mRNA editing, Mean ([3]; 120 μM): 69%

effect on editing in hepatocytes [3]: stimulated
Compound: O=S(=O)(NCCNC/C=C/c1ccc(Br)cc1)c1cccc2cnccc12 [H89]

Compound: CC(C)NCC(O)c1ccc(O)c(O)c1 (stereo not drawn) [Isoproterenol]
EC50 [7, 11]: 50000 nM
EC50 ([7]; range printed with mixed units): 1 to 100000 nM

effect on editing in hepatocytes [3]: stimulated
Compound: COc1ccc(S(=O)(=O)N(CCO)c2ccccc2CN(C)C/C=C/c2ccc(Cl)cc2)cc1 [KN93]

effect on editing in hepatocytes [3]: did not affect editing
Compound: O=S(=O)(c1cccc2c(I)cccc12)N1CCCNCC1 [ML-7]

Compound: C=C1[C@@H](O)[C@@H]2O[C@]3(CC[C@H](/C=C/[C@@H](C)[C@@H]4CC(C)=C[C@@]5(O[C@H](C[C@@](C)(O)C(=O)O)CC[C@H]5O)O4)O3)CC[C@H]2O[C@@H]1[C@@H](O)C[C@H](C)[C@H]1O[C@@]2(CCCCO2)CC[C@H]1C [Okadaic acid]
apoB mRNA editing, Mean ± SEM ([3]; 1 nM): 72 ± 4%
apoB mRNA editing, Mean ± SEM ([3]; 10 nM): 74 ± 4%
apoB mRNA editing, Mean ± SEM ([3]; 100 nM): 91 ± 2%
apoB mRNA editing (increased from 66%) [3]: greater than 90%
effect on apoB mRNA editing ([3]; concentration not given): stimulated

effect on editing in hepatocytes [3]: did not affect editing
Compound: COc1cccc(-c2cc(=O)c3ccccc3o2)c1N [PD98059]

Compound: CCCCCCCCCCCCCC(=O)O[C@@H]1[C@@H](C)[C@@]2(O)[C@@H](C=C(CO)C[C@]3(O)C(=O)C(C)=C[C@@H]23)[C@@H]2C(C)(C)[C@]12OC(C)=O [PMA]
apoB mRNA editing, Mean ([3]; 500 nM): 68.8%
apoB mRNA editing, Mean ([3]; 5 μM): 64.9%
apoB mRNA editing, Mean ([3]; 50 μM): 63%

editing in metabolic state of rat hepatocytes (model, basal ~65%) [3]: ~95%
Compound: CCO [ethanol]
increase in editing activity [8]: 52%
percent editing (from 21%) [8]: 32%
increase of phosphoACF in nuclear 27S editosomes ([6]; 0.45% ethanol, 4 hours): 3.5 fold
increase of phosphoserine in immunopurified ACF ([6]; 0.9% ethanol during the labeling period): 1.5 fold

Compound: Glucagon
EC50 [7, 11]: 0.1 to 100 nM
EC50 ([7]; activation of cAMP dependent kinases, listed as glucagon): 50 nM
apoB mRNA editing, Mean ([3]; 1 nM): 62.2%
apoB mRNA editing, Mean ([3]; 10 nM): 59.5%
apoB mRNA editing, Mean ([3]; 100 nM): 58.3%

Compound: insulin: porcine insulin (Sigma)
editing in metabolic state of rat hepatocytes (model, basal ~65%) [3]: ~80%
hepatic ACF nuclear retention, fold change ([9]; lean mice): 4 fold
hepatic ACF nuclear retention, fold change ([9]; ob/ob mice): 0.9 fold
increase of phosphorylated ACF in nuclear 27S editosomes ([6]; 10 nM insulin, 4 hours): 2.5 fold and 2 fold
